In patent publication US9822069B2, “Urea derivative or pharmacologically acceptable salt thereof” (KYORIN PHARMACEUTICAL CO. LTD., priority 2013, dated 2017):

The molecules below were run against T1, human FPRL1 (Homo sapiens, UniProt P25090) (assay: Measurement test of agonist activity on human FPRL1 (test of calcium mobilization in cell, HEK293 with human FPRL1 and Gα15 expression vectors)). Conditions: calcium mobilization in HEK293 cells with human FPRL1 and Gα15 expression vectors.
T1 construct: expressed in transfected cells; host or cells: HEK293 (JCRB9068, NIBIO), transient transfection with pCMV-script vectors using Lipofectamine 2000
T1 sequence (P25090 1-351): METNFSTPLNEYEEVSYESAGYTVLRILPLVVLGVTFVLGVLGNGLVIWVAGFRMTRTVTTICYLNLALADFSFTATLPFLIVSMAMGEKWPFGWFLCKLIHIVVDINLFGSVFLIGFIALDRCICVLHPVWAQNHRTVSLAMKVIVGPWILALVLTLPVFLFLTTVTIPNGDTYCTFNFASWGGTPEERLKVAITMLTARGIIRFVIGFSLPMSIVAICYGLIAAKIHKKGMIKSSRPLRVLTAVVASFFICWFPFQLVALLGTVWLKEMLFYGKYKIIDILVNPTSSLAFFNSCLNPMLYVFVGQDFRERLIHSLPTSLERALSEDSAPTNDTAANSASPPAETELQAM
Type: cell-based
Excerpt: Measurement Test of Agonist Activity on Human FPRL1
(1-1) Construction of Human FPRL1 Expression Vector
Human FPRL (SEQ ID NO: 3) was amplified in a PCR reaction from cDNA derived from a monocytic leukemia cell line THP-1 (TIB-202, ATCC) as a template using a forward primer shown in SEQ ID NO: 1, a reverse primer shown in SEQ ID NO: 2, and KOD-plus-ver. 2 (KOD-211, TOYOBO CO., LTD.). The amplified PCR product and pCMV-script vector (212220, STRATAGENE) were digested with Hind III (1060A, Takara Bio Inc.) and XhoI (1094A, Takara Bio Inc.), and the resultant digest was ligated with Ligation high ver. 2 (LGK-201, TOYOBO CO., LTD.). The ligation product was transformed into DH5α (DNA-901, TOYOBO CO., LTD.), cultured on a 100 μg/mL kanamycin-containing LB medium, and purified with HiSpeed Plasmid Maxi Kit (12662, QIAGEN).
(1-2) Construction of Human Gα15 Expression Vector
Human Gα15 (SEQ ID NO: 6) was amplified in a PCR reaction from cDNA derived from a myeloid leukemia cell line HL-60 (CCL-240, ATCC) as a template using a forward primer shown in SEQ ID NO: 4, a reverse primer shown in SEQ ID NO: 5, and KOD-plus-ver. 2. The amplified PCR product and pCMV-script vector were digested with Hind III and XhoI, and the resultant digest was ligated with Ligation high ver. 2. The ligation product was transformed into DH5α, cultured on a 100 μg/mL kanamycin-containing LB medium, and purified with HiSpeed Plasmid Maxi Kit.
(2-1) Method for Culturing and Subculturing HEK293
HEK293 (JCRB9068, NIBIO) was cultured in an incubator at 5% CO2 and 37° C. using DMEM (11885-092, GIBCO) containing 10% FBS and 1× Penicillin-Streptomycin (15140-122, GIBCO). Subculture was carried out as followings: The cells that reached 80 to 90% confluency were washed with PBS(−), separated using 0.25% Trypsin-EDTA (25200-072, GIBCO), centrifuged, re-suspended in a fresh medium, and then seeded in Collagen Type 1 Coated dish (4020-010, IWAKI) at a split ratio of 1:8 (cultured for 3 days).
(2-2) Introduction of Human FPRL1 and Gα15 Expression Vectors
HEK293 that reached 80 to 90% confluency was washed with PBS(−), separated using 0.25% Trypsin-EDTA, centrifuged, and re-suspended in a fresh medium excluding 1× Penicillin-Streptomycin. The cells were inoculated in a Collagen Type 1 coated 6-well plate (4810-010, IWAKI) to 5×10^5 cells/2.5 mL/well and cultured overnight. On the next day, human FPRL1 and Gα15 expression vectors were introduced using Lipofectamine 2000 transfection reagent (11668-019, Life technologies). First, the human FPRL1 and Gα15 expression vectors were diluted with Opti-MEM I Reduced Serum Medium (31985-070, GIBCO) to 2 μg/250 μL/well and Lipofectamine 2000 transfection reagent was diluted with Opti-MEM I Reduced Serum Medium to be 4 μL/250 μL/well. The vectors and reagent were softly diffused, and incubated at room temperature for 5 minutes. The vector solution was mixed with Lipofectamine 2000 transfection reagent in equal amounts. In order to form a composite of the vectors and Lipofectamine 2000 transfection reagent, the mixture was incubated at room temperature for 20 minutes, and added at 500 μL/well to the medium of inoculated cells. The treated cells were cultured for 24 hours, inoculated in Poly-D-Lysine coated 96-well plate (356640, BD Biosciences) at a cell density of 7×10^4 cells/100 μL/well, and cultured for another 24 hours. The resultant cells were used in a measurement test of calcium mobilization in the cells.
(3) Evaluation of Agonist Activity on Human FPRL1 (Test of Calcium Mobilization in Cell)
An appropriate amount of each test compound was first weighed, and dissolved to 10^−2 M by addition of dimethyl sulfoxide (DMSO). […]

SMILES	EC50 [nM]
COc1ccc([C@H]2CN(OC)C(=O)[C@@H]2NC(=O)Nc2ccc(F)cc2)cc1 (single isomer, unassigned) [EXAMPLE 27-1, (+)-1-(4-Fluorophenyl)-3-[(3R*,4S*)-1-methoxy-4-(4-methoxyphenyl)-2-oxopyrrolidin-3-yl]urea]	3.14
COc1ccc(C2CNC(=O)C2NC(=O)Nc2ccc(F)cc2)cc1 (stereo not drawn) [Example 12-13, (+)-1-(4-fluorophenyl)-3-[4-(4-methoxyphenyl)-2-oxopyrrolidin-3-yl]urea]	1.12
COc1cc(F)c([C@@H]2CN/C(=N\OCCO)[C@H]2NC(=O)Nc2cc3ccccc3s2)c(F)c1 (single isomer, unassigned) [EXAMPLE 32-15, (−)-1-(benzo[b]thiophen-2-yl)-3-{(3S*,4R*,Z)-4-(2,6-difluoro-4-methoxyphenyl)-2-[(2-hydroxyethoxy)imino]pyrrolidin-3-yl}urea]	0.27
COc1ccc([C@@H]2CN(C(C)C(=O)O)C(=O)[C@H]2NC(=O)Nc2ccc(F)cc2)cc1 (single isomer, unassigned; isomer a) [Example 18-1, (−)-2-{(3S*,4R*)-3-[3-(4-Fluorophenyl)ureido]-4-(4-methoxyphenyl)-2-oxopyrrolidin-1-yl}propionic acid (isomer A)]	2.36
COc1ccc([C@@H]2CN(CCO)C(=O)[C@H]2NC(=O)Nc2ccc(Cl)cc2)cc1 (single isomer, unassigned) [Example 15-1A, (−)-trans-1-(4-Chlorophenyl)-3-[1-(2-hydroxyethyl)-4-(4-methoxyphenyl)-2-oxopyrrolidin-3-yl]urea]	0.01
CC(C)(C(=O)O)N1C[C@@H](c2cc3c(cc2F)OCC3)[C@H](NC(=O)Nc2ccc(F)cc2)C1=O (relative stereo) [Example 22-2, (−)-2-{(3S*,4R*)-4-(6-Fluoro-2,3-dihydrobenzofuran-5-yl)-3-[3-(4-fluorophenyl)ureido]-2-oxopyrrolidin-1-yl}-2-methylpropanoic acid]	0.38
CNC(=O)C(C)N1C[C@@H](c2ccc(OC)cc2)[C@H](NC(=O)Nc2ccc(F)cc2)C1=O (single isomer, unassigned; isomer a) [Example 19-1, (−)-2-{(3S*,4R*)-3-[3-(4-Fluorophenyl)ureido]-4-(4-methoxyphenyl)-2-oxopyrrolidin-1-yl}-N-methylpropionamide (isomer A)]	0.21
CO/N=C1\NC[C@@H](c2c(F)cc(OC)cc2F)[C@@H]1NC(=O)Nc1ccc(Cl)nc1 (single isomer, unassigned) [EXAMPLE 32-10, (−)-1-(6-chloropyridin-3-yl)-3-[(3S*,4R*,Z)-4-(2,6-difluoro-4-methoxyphenyl)-2-(methoxyimino)pyrrolidin-3-yl]urea]	0.53
O=C(Nc1ccc(F)cc1)N[C@@H]1C(=O)NC[C@H]1c1cc2ccoc2cc1F (relative stereo) [Example 1-77, (−)-1-[(3S*,4R*)-4-(6-fluorobenzofuran-5-yl)-2-oxopyrrolidin-3-yl]-3-(4-fluorophenyl)urea]	5.2
COc1cc(F)c([C@@H]2CNC(=O)[C@H]2NC(=O)Nc2ccc(OC(F)(F)F)cc2)c(F)c1 (relative stereo) [Example 7-1, (−)-1-[(3S*,4R*)-4-(2,6-Difluoro-4-methoxyphenyl)-2-oxopyrrolidin-3-yl]-3-[4-(trifluoromethoxy)phenyl]urea]	1.09

Continued by falling EC50, values first:

EC50 [nM]	SMILES
5.13	O=C(Nc1ccc(Cl)cc1)N[C@H]1C(=O)NC[C@@H]1c1ccccc1 (relative stereo) [Example 1-43, (+)-1-(4-chlorophenyl)-3-[(3R*,4S*)-2-oxo-4-phenylpyrrolidin-3-yl]urea]
3.5	O=C(Nc1cc2ccccc2s1)N[C@@H]1C(=O)NC[C@H]1c1cc2c(cc1F)OCC2 (relative stereo) [Example 1-85, (−)-1-(benzo[b]thiophen-2-yl)-3-[(3S*,4R*)-4-(6-fluoro-2,3-dihydrobenzofuran-5-yl)-2-oxopyrrolidin-3-yl]urea]
1.99	COc1ccc([C@@H]2CN(CCO)C(=O)[C@H]2NC(=O)Nc2ccc(Cl)cc2)cc1 (single isomer, unassigned) [Example 15-1B, (+)-trans-1-(4-Chlorophenyl)-3-[1-(2-hydroxyethyl)-4-(4-methoxyphenyl)-2-oxopyrrolidin-3-yl]urea]
1.2	COc1cc(F)c([C@@H]2CNC(=O)[C@H]2NC(=O)Nc2ccc(C#N)c(O)c2)c(F)c1 (relative stereo) [Example 1-73, 1-(4-cyano-3-hydroxyphenyl)-3-[(3S*,4R*)-4-(2,6-difluoro-4-methoxyphenyl)-2-oxopyrrolidin-3-yl]urea]
1.1	COc1cc(F)c([C@@H]2CN(C)C(=O)[C@H]2NC(=O)Nc2ccc(C#N)cc2)c(F)c1 (relative stereo) [Example 24-3]
0.9	COc1ccc(C2CNC(=O)C2NC(=O)Nc2ccc(Cl)cc2)cc1 (single isomer, unassigned; (+)) [Example 12-12, (+)-1-(4-chlorophenyl)-3-[4-(4-methoxyphenyl)-2-oxopyrrolidin-3-yl]urea]
0.82	COc1cc(F)c([C@@H]2CN/C(=N\OCCO)[C@H]2NC(=O)Nc2ccc(Cl)nc2)c(F)c1 (single isomer, unassigned) [EXAMPLE 32-14, (−)-1-(6-chloropyridin-3-yl)-3-{(3S*,4R*,Z)-4-(2,6-difluoro-4-methoxyphenyl)-2-[(2-hydroxyethoxy)imino]pyrrolidin-3-yl}urea]
0.72	COc1ccc([C@@H]2CNC(=O)[C@H]2NC(=O)Nc2ccc(F)cc2)s1 (single isomer, unassigned) [EXAMPLE 1-19, (−)-1-(4-fluorophenyl)-3-[(3S*,4R*)-4-(5-methoxythiophen-2-yl)-2-oxopyrrolidin-3-yl]urea]
0.57	COc1cc(F)c([C@@H]2CN/C(=N\N3CCOCC3)[C@H]2NC(=O)Nc2ccc(F)cc2)c(F)c1 (single isomer, unassigned) [EXAMPLE 32-17, (−)-1-[(3S*,4R*,Z)-4-(2,6-difluoro-4-methoxyphenyl)-2-(morpholinoimino)pyrrolidin-3-yl]-3-(4-fluorophenyl)urea]
0.11	COc1cc(F)c([C@@H]2CN(Cc3cccnc3)C(=O)[C@H]2NC(=O)Nc2ccc(F)cc2)c(F)c1 (relative stereo) [Example 24-13, (−)-1-[(3S*,4R*)-4-(2,6-difluoro-4-methoxyphenyl)-2-oxo-1-(pyridin-3-ylmethyl)pyrrolidin-3-yl]-3-(4-fluorophenyl)urea]
0.03	CO/N=C1\NC[C@@H](c2ccc(OC)cc2F)[C@@H]1NC(=O)Nc1ccc(F)cc1 (single isomer, unassigned) [EXAMPLE 32-2, (−)-1-[(3S*,4R*,Z)-4-(2-fluoro-4-methoxyphenyl)-2-(methoxyimino)pyrrolidin-3-yl]-3-(4-fluorophenyl)urea]
